This note sets out measurements from paper PMC9054212, “Discovery of 4-(2-(dimethylamino)ethoxy)benzohydrazide derivatives as prospective microtubule affinity regulating kinase 4 inhibitors” (RSC Advances, 2020).

Assay [1] deals with T1, MARK4 (Homo sapiens, UniProt Q96L34).
T1 construct: MARK4 protein was expressed and purified by following previous protocols; made in house
T1 sequence (Q96L34 1-752): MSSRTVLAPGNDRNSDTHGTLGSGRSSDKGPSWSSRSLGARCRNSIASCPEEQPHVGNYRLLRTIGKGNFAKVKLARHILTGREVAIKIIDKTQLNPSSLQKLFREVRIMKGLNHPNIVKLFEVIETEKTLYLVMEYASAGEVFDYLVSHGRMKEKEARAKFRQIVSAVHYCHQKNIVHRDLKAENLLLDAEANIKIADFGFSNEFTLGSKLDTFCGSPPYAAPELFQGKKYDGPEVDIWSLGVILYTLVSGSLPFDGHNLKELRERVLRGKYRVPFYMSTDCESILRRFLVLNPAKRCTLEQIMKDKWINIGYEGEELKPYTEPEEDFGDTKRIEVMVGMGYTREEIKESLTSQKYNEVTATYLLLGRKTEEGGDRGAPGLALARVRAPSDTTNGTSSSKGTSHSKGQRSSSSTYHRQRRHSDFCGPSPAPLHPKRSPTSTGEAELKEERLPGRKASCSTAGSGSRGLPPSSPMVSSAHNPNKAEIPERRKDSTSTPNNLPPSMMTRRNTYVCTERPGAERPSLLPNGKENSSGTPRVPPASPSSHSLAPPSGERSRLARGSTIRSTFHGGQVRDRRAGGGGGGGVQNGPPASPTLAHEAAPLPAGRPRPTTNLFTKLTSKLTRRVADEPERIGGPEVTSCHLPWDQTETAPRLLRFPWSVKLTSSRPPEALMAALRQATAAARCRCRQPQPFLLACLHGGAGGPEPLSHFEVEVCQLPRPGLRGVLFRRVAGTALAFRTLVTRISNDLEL
In words: Fluorescence quenching binding study with MARK4. The following applies: Stern–Volmer plot, ligand 0–20 μM, MARK4 5 μM. As to the method: The binding affinity of selected hydrazone derivatives with human serum albumin (HSA) and MARK4 was carried out using fluorescence binding studies as described.[39] The values of binding constant (Ka) and a number of binding sites present in protein (n) were obtained by using the modified Stern–Volmer equation from the intercept and slope, respectively.
To measure the actual binding affinity of selected ligands with MARK4 and HSA, fluorescence quenching studies were performed.[43,44] Both MARK4 and HSA contain tryptophan residues, therefore it has been used as an intrinsic fluorophore to estimate the interaction of ligand. Protein was excited at 280 nm and the emission spectrum was recorded in 300–400 nm range. With increasing ligand concentrations (0–20 μM), the fluorescence intensity of MARK4 and HSA was decreases in a concentration-dependent manner (Fig. 3 and 4), indicating a considerable binding. Values of Ka and n were calculated from fluorescence emission spectra using the Stern–Volmer plot. […]
Fig. 3 Binding of compound H4 and H19 with MARK4. (A) Fluorescence emission spectra of MARK4 (5 μM) with increasing concentrations of compound H4 and H19. (B) Stern–Volmer plot obtained from the fluorescence quenching data of MARK4 by compound H4 and H19, respectively. Protein sample was excited at 280 nm and emission for each titration was recorded in the range of 300–400 nm. […]

The subject of assay [2] is A549 cells. In words: Annexin-V/PI apoptosis assay by flow cytometry, A549. Type of assay: cell-based, human. The note with it: IC50 concentration, 48 h. On the procedure:
Annexin-V staining was used to assess the apoptotic potential of the selected hydrazones as described.[22,41] Briefly, cells were treated with IC50 concentration of selected hydrazones for 24 h and control cells were treated with DMSO/culture medium only. After 24 h incubation, approximately 2.0–2.5 × 10^6 cells were collected by trypsinization and washed twice with PBS (5–10 mL). Finally, FITC labelled Annexin-V and PE labelled PI was used for staining the cells using the FITC-Annexin-V kit by following manufacture instructions (BD-Biosciences, USA). Nearly, 10 000 events were recorded using BD LSR II Flow Cytometry Analyzer and analyzed by FlowJo software.
Cancer cells support their growth and maintenance by evading the apoptotic pathways.[48] MARK4 regulates the cancer cell growth and proliferation via modulating the apoptotic pathways.[12,15,46] The treatment of MCF-7 and A549 cells with H4 and H19 inhibit the activity of MARK4, decreases cell proliferation and migration raises the evaluation of these MARK4 inhibitors for the apoptosis induction. Thus, to investigate whether the selected inhibitor induces cell death via apoptosis or not, we have performed Annexin-V/PI staining using flow cytometry. Cells were treated with IC50 concentration of each molecule for 48 h and processed for apoptosis analysis. […]
(In general: Flow cytometry measures light scatter and fluorescence of single cells or particles in a stream.)

The subject of assay [3] is MCF-7 cells. Briefly: Trans-well cell migration assay, MCF-7. The assay is classed as cell-based, human. The following applies: IC50 concentration, 24 h, Boyden chamber, vs control. As to the method: Trans-well migration assay was performed using a modified Boyden chamber containing cell culture inserts (8 μm pore size, polyethylene terephthalate track-etched membrane, BD Falcon #353093). Briefly, cells were serum-starved for 3–4 h, trypsinized and suspended in a serum-free medium. In the upper chamber of cell culture insert, an equal number of cells with the IC50 dose of selected compounds or DMSO (control) were plated and in the lower chamber of well plate, 10% FBS-DMEM (for chemotaxis movement) was added. The cells were allowed to migrate for 24 h in a humidified 5% CO2 incubator at 37 °C and the migrated cells (that invaded through membrane pores) onto the lower side of Trans-well cell culture insert were fixed with methanol and staining was performed using 0.4% crystal violet in 25% methanol. The remaining cells present on the upper side of the chamber were wiped off with the help of cell scrapper/tissue wipes. Finally, the migrated cells present on the lower surface of the cell culture insert were imaged using a light microscope and counted in 3–5 random fields.

On to `Cc1cc(C)c(C=NNC(=O)c2ccc(OCCN(C)C)cc2)c(C)c1` [H19], for which, in assay [1] (read-out: binding constant Ka for MARK4 (converted)), the Kd is 10.4 nM. Further, in assay [2], the “apoptosis induced, share of A549 cells” value turned out to be 24.25%. Further, the “cell migration, MCF-7” value in assay [3] is on record as “lesser number of cells were migrated”.
Regarding `CN(C)CCOc1ccc(C(=O)NN=Cc2ccc(Cl)cc2)cc1` [H4], the “binding constant Ka for MARK4” value in assay [1] worked out at 4.07e+09 M⁻¹. In addition, in assay [2], the “apoptosis induced, share of A549 cells” value is reported as 28.5%. In addition, the “cell migration, MCF-7” value in assay [3] is recorded as “lesser number of cells were migrated”.
